# From patent US12207673B2, “Compounds that modulate fatty acid receptor activity and pet food products containing the same” (MARS, INCORPORATED, priority 2014, dated 2025)
# Legend:
# fGPR120 = fGPR120 agonist mode / PAM mode assay in CHO/NatClytin/fGpr120+Gα16 cells, Fluo8-NW, FLIPR Tetra; type: cell-based, feline
# Procedure: Methods: CHO cells that stably express fGPR120 were used to assay dodecyl dihydrogen phosphate for activity as an fGPR120 agonist or PAM.
# CHO/NatClytin/fGpr120+Gα16 (fGpr120) cells and CHO/NatClytin/mock+Gα16 (mock) cells were seeded at 5,000 cells/well. 24 hours after cell seeding, cells were loaded with 0.5×Fluo8-NW dye in standard tyrode buffer (20 μl/well) for 1 h at room temperature. The ability of dodecyl dihydrogen phosphate to activate fGPR120 expressed by the CHO cells was determined by measuring fluorescence using a FLIPR® Tetra screening system after contacting the cells with the compound in agonist mode and PAM mode according to the following protocol: • 1. […] For mock controls, 0.2μ ATP was used as the agonist.
# The maximum of ΔF/F values measured using the FLIPR® Tetra system were exported and used for data analysis.
# The compounds used in the experiments were dissolved 6× in 0.01% BSA (fatty acid-free) and then pre-mixed on compound plates with buffer.
# Controls for agonist mode experiments—dose response curves of α-linolenic acid (FIGS. 12A and 12B): 100 μM α-linolenic acid (fGpr120 max signal), 30 μM ATP (max signal), buffer (min signal), buffer+0.01% BSA (min signal).
# [1] = system: CHO/NatClytin/mock+Gα16 (mock) cells; assay: Mock control of the agonist/PAM assay with ATP as agonist; type: cell-based; settings: concentration used as min signal in PAM mode
# Procedure: CHO/NatClytin/fGpr120+Gα16 (fGpr120) cells and CHO/NatClytin/mock+Gα16 (mock) cells were seeded at 5,000 cells/well. 24 hours after cell seeding, cells were loaded with 0.5×Fluo8-NW dye in standard tyrode buffer (20 μl/well) for 1 h at room temperature. The ability of dodecyl dihydrogen phosphate to activate fGPR120 expressed by the CHO cells was determined by measuring fluorescence using a FLIPR® Tetra screening system after contacting the cells with the compound in agonist mode and PAM mode according to the following protocol: • 1. […] PAM mode: injection of 3× dodecyl dihydrogen phosphate (10 μl/well), wherein fluorescence was measured for 3 min. After about 1 additional minute, injection of 3× fGPR120 agonist at a concentration corresponding to the agonist's EC20 (15 μl/well), wherein fluorescence (i.e., PAM activity) was measured for 3 min. The fGPR120 agonist was 1.5 μM α-linolenic acid. For mock controls, 0.2μ ATP was used as the agonist.
# Controls for PAM mode experiments—dose response curves of α-linolenic acid (fGpr120) or ATP (mock) (FIGS. 12A and 12B): 100 μM α-linolenic acid (max signal for Gpr120), 1.5 μM α-linolenic acid (EC20, min signal for Gpr120), 30 μM ATP (max signal), 0.2 μM ATP (EC20, min signal).
compound,measurement,setting,value
"CC/C=C\C/C=C\C/C=C\CCCCCCCC(=O)O [Compound 24, (9Z,12Z,15Z)-octadeca-9,12,15-trienoic acid]",EC20 of the fGPR120 agonist,"fGPR120; fGpr120 cells, concentration used as min signal in PAM mode",1500 nM
"CCCCCCCCCCCCOP(=O)(O)O [dodecyl dihydrogen phosphate, Dodecyl dihydrogen phosphate]",modulation of fGPR120 activity as positive allosteric modulator (PAM),"fGPR120; PAM mode, in the presence of an fGPR120 agonist (1.5 μM α-linolenic acid, EC20)",modulated the activity of fGPR120 as a PAM
Nc1ncnc2c1ncn2[C@@H]1O[C@H](COP(=O)(O)OP(=O)(O)OP(=O)(O)O)[C@@H](O)[C@H]1O [ATP],EC20 of ATP in mock cells,[1],200 nM
